{
  "source": "patent US9453026B2",
  "about": "“ACC inhibitors and uses thereof” (Gilead Apollo, Inc., priority 2011, dated 2016)",
  "key": {"[1]": {"molecular_target": "ACC2 (Homo sapiens, UniProt O00763)", "sequence (O00763 whole entry, species assumed)": "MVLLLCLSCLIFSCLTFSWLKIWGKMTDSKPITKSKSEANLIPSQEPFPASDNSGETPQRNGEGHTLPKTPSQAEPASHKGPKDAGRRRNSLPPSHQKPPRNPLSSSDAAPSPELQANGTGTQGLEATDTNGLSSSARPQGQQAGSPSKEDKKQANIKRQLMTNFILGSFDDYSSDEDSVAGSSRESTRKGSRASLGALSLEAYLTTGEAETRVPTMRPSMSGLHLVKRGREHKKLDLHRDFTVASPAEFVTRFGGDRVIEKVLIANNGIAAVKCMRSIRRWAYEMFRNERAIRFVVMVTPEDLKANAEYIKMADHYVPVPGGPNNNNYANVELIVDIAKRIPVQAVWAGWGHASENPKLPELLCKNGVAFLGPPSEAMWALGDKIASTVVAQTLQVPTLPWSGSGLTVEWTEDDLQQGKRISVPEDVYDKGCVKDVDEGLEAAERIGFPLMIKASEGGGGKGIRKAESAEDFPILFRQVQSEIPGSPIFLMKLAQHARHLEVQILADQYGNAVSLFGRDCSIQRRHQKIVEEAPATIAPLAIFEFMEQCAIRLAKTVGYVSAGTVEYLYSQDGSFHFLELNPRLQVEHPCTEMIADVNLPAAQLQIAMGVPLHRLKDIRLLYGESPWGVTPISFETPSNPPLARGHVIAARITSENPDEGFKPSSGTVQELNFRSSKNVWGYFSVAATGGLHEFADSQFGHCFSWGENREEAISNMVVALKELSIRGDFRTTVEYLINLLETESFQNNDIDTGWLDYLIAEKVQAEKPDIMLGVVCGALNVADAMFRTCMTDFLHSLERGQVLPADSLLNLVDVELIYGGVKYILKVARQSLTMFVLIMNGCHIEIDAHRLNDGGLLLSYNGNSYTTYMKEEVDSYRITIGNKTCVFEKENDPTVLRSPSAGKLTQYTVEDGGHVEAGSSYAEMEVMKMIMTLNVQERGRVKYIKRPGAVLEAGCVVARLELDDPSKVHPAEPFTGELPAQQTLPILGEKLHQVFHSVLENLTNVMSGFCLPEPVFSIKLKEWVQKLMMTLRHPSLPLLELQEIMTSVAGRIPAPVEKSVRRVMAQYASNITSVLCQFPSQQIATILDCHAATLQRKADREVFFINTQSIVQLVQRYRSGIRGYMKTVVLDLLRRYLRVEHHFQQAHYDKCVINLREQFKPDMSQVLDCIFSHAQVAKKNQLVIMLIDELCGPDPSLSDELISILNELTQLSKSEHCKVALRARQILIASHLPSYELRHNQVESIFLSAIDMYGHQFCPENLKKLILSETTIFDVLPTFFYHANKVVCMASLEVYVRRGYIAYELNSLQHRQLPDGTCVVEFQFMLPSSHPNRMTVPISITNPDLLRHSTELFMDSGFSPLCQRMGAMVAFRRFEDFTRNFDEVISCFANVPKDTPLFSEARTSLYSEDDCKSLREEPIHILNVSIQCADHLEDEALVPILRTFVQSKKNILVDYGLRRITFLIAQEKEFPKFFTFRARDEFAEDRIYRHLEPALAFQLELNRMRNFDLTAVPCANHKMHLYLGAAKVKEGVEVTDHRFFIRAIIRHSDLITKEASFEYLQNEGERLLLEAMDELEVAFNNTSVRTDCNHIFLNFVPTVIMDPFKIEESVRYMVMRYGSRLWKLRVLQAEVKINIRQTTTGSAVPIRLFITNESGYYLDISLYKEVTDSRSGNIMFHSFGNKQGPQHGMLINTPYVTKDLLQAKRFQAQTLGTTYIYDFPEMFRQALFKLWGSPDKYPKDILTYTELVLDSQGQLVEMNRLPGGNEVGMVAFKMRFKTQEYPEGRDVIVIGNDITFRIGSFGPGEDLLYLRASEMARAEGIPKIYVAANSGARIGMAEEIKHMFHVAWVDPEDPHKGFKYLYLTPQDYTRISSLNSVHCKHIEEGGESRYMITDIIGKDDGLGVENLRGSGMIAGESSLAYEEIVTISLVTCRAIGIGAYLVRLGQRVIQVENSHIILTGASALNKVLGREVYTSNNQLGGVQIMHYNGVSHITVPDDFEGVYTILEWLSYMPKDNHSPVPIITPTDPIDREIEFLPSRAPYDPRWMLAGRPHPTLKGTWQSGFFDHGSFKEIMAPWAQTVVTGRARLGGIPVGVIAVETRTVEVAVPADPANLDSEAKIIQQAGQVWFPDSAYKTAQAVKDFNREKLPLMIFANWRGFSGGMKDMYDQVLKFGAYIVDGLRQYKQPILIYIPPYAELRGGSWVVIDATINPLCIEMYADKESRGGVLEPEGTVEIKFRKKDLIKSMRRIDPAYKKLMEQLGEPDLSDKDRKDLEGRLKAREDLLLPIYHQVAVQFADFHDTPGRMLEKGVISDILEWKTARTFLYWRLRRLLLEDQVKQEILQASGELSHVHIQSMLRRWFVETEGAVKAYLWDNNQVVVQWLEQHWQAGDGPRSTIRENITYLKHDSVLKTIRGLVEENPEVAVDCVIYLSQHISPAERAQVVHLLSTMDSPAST", "assay": "In vitro ACC2 inhibition assay (ADP-Glo)", "type": "biochemical", "outline": "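Enzyme (human ACC1 or ACC2) and compound, serially diluted 1:3 over 11 points from a 600 uM DMSO stock, were preincubated 15 min before substrate addition.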"}, "[2]": {"tested_on": "C. albicans ATCC 90028", "assay": "Anti-Fungal Activity Assay (broth microtiter MIC)", "type": "cell-based", "settings": "3 replicates, test compounds read at 48 h"}, "[3]": {"tested_on": "C. krusei ATCC 6258", "assay": "Anti-Fungal Activity Assay (broth microtiter MIC)", "type": "cell-based", "settings": "3 replicates, test compounds read at 48 h"}, "[4]": {"tested_on": "C. parapsilosis ATCC 22019", "assay": "Anti-Fungal Activity Assay (broth microtiter MIC)", "type": "cell-based", "settings": "3 replicates, test compounds read at 48 h"}, "[5]": {"assay": "Respiratory Quotient Measurement Assay", "type": "in vivo, Sprague-Dawley rats", "settings": "rats, FIG. 9 and FIG. 10", "experimental": "Compounds of the present invention were also assayed in a Respiratory Quotient Measurement Assay, as described by Harwood et al. “Isozyme-nonselective N-Substituted Bipiperidylcarboxamide Acetyl-CoA Carboxylase Inhibitors Reduce Tissue Malonyl-CoA Concentrations, Inhibit Fatty Acid Synthesis, and Increase Fatty Acid Oxidation in Cultured Cells and in Experimental Animals” Journal of Biological Chemistry (2008) 278, 37099-37111. An exemplary procedure for the assay, which measures the ratio of carbon dioxide production to oxygen consumption in rats, follows.\nMale Sprague-Dawley rats (350-400 g) housed under standard laboratory conditions, either fed chow, fasted, or fasted and refed a diet high in sucrose for 2 days prior to experimentation were removed from their home cages, weighed, and placed into sealed chambers (43″43″10 cm) of the calorimeter (one rat per chamber). The chambers were placed in activity monitors. The calorimeter was calibrated before each use, air flow rate was adjusted to 1.6 liters/min, and the system settling and sampling times were set to 60 and 15 s, respectively. Base-line oxygen consumption, CO2 production, and ambulatory activity were measured every 10 min for up to 3 h before treatment. […]"}},
  "note": "Read-outs that look alike come from different tables or passages of the source.",
  "data": [
    {"compound": "COc1ccccc1[C@H](Cn1c(=O)n(C(C)(C)C(=O)O)c(=O)c2c(C)c(-c3ncco3)sc21)OC1CCOCC1", "note": "[I-181, 2-[1-[2-(2-methoxyphenyl)-2-(oxan-4-yloxy)ethyl]-5-methyl-6-(1,3-oxazol-2-yl)-2,4-dioxo-1H,2H,3H,4H-thieno[2,3-d]pyrimidin-3-yl]-2-methylpropanoic acid]", "values": [
      {"measurement": "IC50", "setting": "[1]", "result": "< 100", "unit": "nM"},
      {"measurement": "MIC", "setting": "[2]", "result": ">64", "unit": "µg/mL"},
      {"measurement": "MIC", "setting": "[2]; Candida albicans, ATCC90028, 48 h, read-out: MIC", "result": "> 64", "unit": "µg/mL"},
      {"measurement": "MIC", "setting": "[3]", "result": ">64", "unit": "µg/mL"},
      {"measurement": "MIC", "setting": "[3]; Pichia kudriavzevii, ATCC6258, 48 h, read-out: MIC", "result": "> 64", "unit": "µg/mL"},
      {"measurement": "MIC", "setting": "[4]", "result": ">64", "unit": "µg/mL"},
      {"measurement": "MIC", "setting": "[4]; Lodderomyces parapsilosis, ATCC22019, 48 h, read-out: MIC", "result": "> 64", "unit": "µg/mL"},
      {"measurement": "RQ relative to baseline", "setting": "[5]", "result": "80-90 % of its baseline value"},
      {"measurement": "RQ, dose dependence", "setting": "[5]; doses of 3, 10, 30 and 100 mg/kg", "result": "dose-dependent decreases in RQ"}
    ]}
  ]
}
